Laboratory results published in ChEMBL document CHEMBL1123092, “Psychotomimetic N-methyl-N-isopropyltryptamines. Effects of variation of aromatic oxygen substituents” (1985).

Assays:
[1] = species: Rattus norvegicus; experiment: Duration of time in hours, after ingestion at which central effects begin to decline was determined.; format: functional
[2] = […] and the effective dose required for the elicitation of the complete psychotomimetic spectrum was determined.; format: functional
[3] = species: Rattus norvegicus; experiment: Onset time in minutes, between ingestion and the first noticeable symptoms was determined; format: functional
[4] = species: Rattus norvegicus; experiment: […] and the effective dose required for the elicitation of the complete psychotomimetic spectrum was determined; f =Not effective at 50 mg; format: functional, organism-based

Structure (SMILES)	Duration [1] [h]	Effective dose [2] [mg/kg]	Onset time [3] [min]	Effective dose [4]
CC(C)N(C)CCc1c[nH]c2cccc(O)c12	6	10	20	–
COc1ccc2[nH]cc(CCN(C)C(C)C)c2c1	3	5	9	–
COc1cccc2[nH]cc(CCN(C)C(C)C)c12	2	30	45	–
CC(C)N(C)CCc1c[nH]c2ccccc12	3	25	40	–
COc1ccc2c(CCN(C)C(C)C)c[nH]c2c1	–	–	–	Not effective at 50mg
CC(C)N(C)CCc1c[nH]c2cc3ooc3cc12	–	–	–	Not effective at 50mg
COc1cccc2c(CCN(C)C(C)C)c[nH]c12	–	–	–	Not effective at 50mg
COc1cc2[nH]cc(CCN(C)C(C)C)c2cc1OC	–	–	–	Not effective at 50mg
